What was measured:
Experiment in all cases: Bliss excess, mean over the matrix (fraction); higher = more synergy
[1] = test system: 8305C (Thyroid Gland Carcinoma)
In short: (§1)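 Cell lines in DMEM/F12 or RPMI with 10% FBS were plated in 1536-well plates, held 24 hours at 37°C, 5% CO2, then given two-drug dose matrices for 72 hours (DMSO typically 0.2%). Viability was read by CellTiter-Glo 2.0 luminescence and scaled as inhibition from 0 (vehicle wells) to 1 (blank wells). Combination Emax is the second-highest inhibition in the matrix; Bliss excess is observed combination effect minus expected EA + EB − EA·EB, EA and EB being single-agent effects.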

[2] = test system: CAL-51 (Breast Carcinoma)
In short: as §1

[3] = test system: CAL-54 (Kidney Carcinoma)
In short: as §1

[4] = test system: CAPAN-1 (Pancreatic Carcinoma)
In short: as §1

COLO-829 (Melanoma) = test system: COLO-829 (Melanoma)
In short: as §1

[5] = test system: CTB-1 (B-Cell Non-Hodgkin's Lymphoma)
In short: as §1

[6] = test system: EN (Endometrial Carcinoma)
In short: as §1

[7] = test system: KARPAS-231 (B-Cell Non-Hodgkin's Lymphoma)
In short: as §1

[8] = test system: KYSE-410 (Esophageal Squamous Cell Carcinoma)
In short: as §1

[9] = test system: LB771-HNC (Head and Neck Carcinoma)
In short: as §1

[10] = test system: MDA-MB-468 (Breast Carcinoma)
In short: as §1

NCI-H2795 (Mesothelioma) = test system: NCI-H2795 (Mesothelioma)
In short: as §1

[11] = test system: NCI-H69 (Small Cell Lung Carcinoma)
In short: as §1

[12] = test system: NCI-H747 (Colorectal Carcinoma)
In short: as §1

[13] = test system: PCI-30 (Head and Neck Carcinoma)
In short: as §1

[14] = test system: RPMI-6666 (Non-Cancerous)
In short: as §1

SH-4 (Melanoma) = test system: SH-4 (Melanoma)
In short: as §1

[15] = test system: SK-OV-3 (Ovarian Carcinoma)
In short: as §1

[16] = test system: SW1271 (Small Cell Lung Carcinoma)
In short: as §1

[17] = test system: SW626 (Colorectal Carcinoma)
In short: as §1

| Structure (SMILES) | Bliss excess [1] | Bliss excess [2] | Bliss excess [3] | Bliss excess [4] | Bliss excess (COLO-829 (Melanoma)) | Bliss excess [5] | Bliss excess [6] | Bliss excess [7] | Bliss excess [8] | Bliss excess [9] | Bliss excess [10] | Bliss excess (NCI-H2795 (Mesothelioma)) | Bliss excess [11] | Bliss excess [12] | Bliss excess [13] | Bliss excess [14] | Bliss excess (SH-4 (Melanoma)) | Bliss excess [15] | Bliss excess [16] | Bliss excess [17] |
| --- | --- | --- | --- | --- | --- | --- | --- | --- | --- | --- | --- | --- | --- | --- | --- | --- | --- | --- | --- | --- |
| Cc1cc2ncnn2cc1Nc1ncc2c(n1)n(C1CCOCC1)c(=O)n2C [AZD7648] + C=CCn1c(=O)c2cnc(Nc3ccc(N4CCN(C)CC4)cc3)nc2n1-c1cccc(C(C)(C)O)n1 [AZD1775] (first compound max 10 µM, partner max 1 µM) | -0.0825 | -0.05 | 0.016 | 0.0049 | -0.0047 | -0.0542 | -0.0608 | -0.0309 | -0.0094 | -0.0078 | -0.0044 | 0.056 | -0.118 | -0.0108 | 0.0419 | -0.0687 | 0.0332 | -0.0663 | -0.0199 | 0.0341 |
| CN(C)CCCOc1ccc(-c2ccc3ncc4c(c3c2)n(C2CCOCC2)c(=O)n4C)cn1 [AZD0156] + C[C@@H]1COCCN1C2=NC(=NC(=C2)C3(CC3)[S@](=N)(=O)C)C4=C5C=CNC5=NC=C4 [AZD6738] (first compound max 1 µM, 7x7, partner max 10 µM) | -0.0765 | 0.0198 | -0.0136 | -0.0775 | -0.0327 | -0.063 | -0.0073 | 0.0732 | -0.0201 | -0.025 | -0.011 | -0.0643 | -0.0233 | -0.0103 | 0.0081 | -0.0187 | 0.0052 | -0.015 | 0.0015 | -0.0214 |
| CN(C)CCCOc1ccc(-c2ccc3ncc4c(c3c2)n(C2CCOCC2)c(=O)n4C)cn1 [AZD0156] + C=CCn1c(=O)c2cnc(Nc3ccc(N4CCN(C)CC4)cc3)nc2n1-c1cccc(C(C)(C)O)n1 [AZD1775] (first compound max 1 µM, partner max 1 µM) | 0.012 | -0.0303 | -0.043 | -0.0768 | -0.0486 | 0.0101 | -0.0767 | 0.0355 | -0.0464 | -0.0593 | -0.0449 | -0.0131 | -0.129 | -0.0309 | -0.0356 | -0.009 | -0.0219 | -0.0433 | -0.0895 | -0.0576 |
| COc1cccc(OCCCN)c1-c1cc(Nc2cnc(C#N)cn2)n[nH]1 [Prexasertib] + O=C(c1cc(Cc2n[nH]c(=O)c3ccccc23)ccc1F)N1CCN(C(=O)C2CC2)CC1 [Olaparib] (first compound max 1 µM, 7x7, partner max 10 µM) | -0.0732 | -0.0744 | -0.0942 | -0.111 | -0.058 | -0.0667 | -0.0336 | -0.0206 | -0.0463 | -0.0162 | -0.106 | -0.024 | 0.0332 | 0.0024 | -0.166 | -0.0352 | -0.099 | -0.12 | -0.0602 | -0.074 |
| CC1(C)CCC(CN2CCN(c3ccc(C(=O)NS(=O)(=O)c4ccc(NCC5CCOCC5)c([N+](=O)[O-])c4)c(Oc4cnc5[nH]ccc5c4)c3)CC2)=C(c2ccc(Cl)cc2)C1 [Venetoclax] + C[C@@H]1COCCN1C2=NC(=NC(=C2)C3(CC3)[S@](=N)(=O)C)C4=C5C=CNC5=NC=C4 [AZD6738] (first compound max 1 µM, 7x7, partner max 10 µM) | -0.0471 | 0.005 | -0.0737 | -0.0674 | 0.0059 | -0.0184 | -0.0605 | -0.18 | -0.0473 | -0.014 | -0.028 | -0.0578 | -0.0494 | -0.0621 | -0.0076 | 0.0224 | -0.022 | -0.012 | -0.0497 | -0.0492 |
| Cc1cc2ncnn2cc1Nc1ncc2c(n1)n(C1CCOCC1)c(=O)n2C [AZD7648] + C[C@@H]1COCCN1C2=NC(=NC(=C2)C3(CC3)[S@](=N)(=O)C)C4=C5C=CNC5=NC=C4 [AZD6738] (first compound max 10 µM, 7x7, partner max 10 µM) | 0.02 | 0.0017 | -0.0183 | 0.0322 | -0.0088 | 0.0098 | -0.0485 | 0.0018 | 0.0285 | 0.0039 | -0.0063 | 0.0603 | -0.0348 | 0.0005 | -0.0101 | -0.0048 | -0.0043 | 0.0411 | 0.0274 | 0.0302 |
| COc1cccc(OCCCN)c1-c1cc(Nc2cnc(C#N)cn2)n[nH]1 [Prexasertib] + CCc1c2c(nc3ccc(O)cc13)-c1cc3c(c(=O)n1C2)COC(=O)[C@]3(O)CC [SN-38] (first compound max 1 µM, 7x7, partner max 0.3 µM) | -0.014 | -0.0495 | -0.115 | -0.0624 | 0.0036 | -0.0622 | 0.0282 | -0.0111 | -0.0192 | 0 | -0.0015 | -0.106 | 0.162 | 0.0283 | 0.0215 | -0.0554 | -0.0831 | -0.0344 | -0.088 | -0.0156 |
| Cc1cc2ncnn2cc1Nc1ncc2c(n1)n(C1CCOCC1)c(=O)n2C [AZD7648] + O=C(c1cc(Cc2n[nH]c(=O)c3ccccc23)ccc1F)N1CCN(C(=O)C2CC2)CC1 [Olaparib] (first compound max 10 µM, 7x7, partner max 10 µM) | -0.0478 | -0.0214 | -0.0408 | -0.1 | -0.0378 | -0.0489 | -0.0423 | 0.0132 | -0.0466 | -0.0542 | -0.0504 | -0.0183 | -0.0151 | -0.0465 | -0.0695 | -0.0545 | -0.0401 | -0.0478 | -0.0461 | -0.0584 |
| Cc1c2c(nn1C)CSCc1cc(n(C)n1)CSc1cc(c3ccccc3c1)OCCCc1c(C(=O)O)n(C)c3c-2c(Cl)ccc13 [AZD5991] + C[C@@H](Nc1cc(F)cc(F)c1)c1cc(C(=O)N(C)C)cc2c(=O)cc(N3CCOCC3)oc12 [AZD8186] (first compound max 1 µM, 7x7, partner max 3 µM) | -0.0844 | 0.0173 | -0.004 | -0.0595 | -0.0758 | -0.0135 | -0.109 | -0.0107 | -0.0639 | -0.0206 | 0.0092 | 0.0848 | -0.0601 | -0.0421 | -0.0209 | -0.0005 | 0.0203 | -0.0501 | -0.0576 | -0.0268 |
| CC1(C)CCC(CN2CCN(c3ccc(C(=O)NS(=O)(=O)c4ccc(NCC5CCOCC5)c([N+](=O)[O-])c4)c(Oc4cnc5[nH]ccc5c4)c3)CC2)=C(c2ccc(Cl)cc2)C1 [Venetoclax] + C1CN(CCC1(C(=O)N[C@@H](CCO)C2=CC=C(C=C2)Cl)N)C3=NC=NC4=C3C=CN4 [Capivasertib] (first compound max 1 µM, 7x7, partner max 3 µM) | 0.0038 | -0.0879 | -0.027 | -0.0473 | -0.045 | -0.045 | -0.0656 | -0.182 | -0.0427 | -0.008 | -0.0435 | -0.111 | 0.0185 | -0.0537 | -0.0216 | 0.0217 | -0.0592 | -0.0577 | -0.105 | -0.018 |
| CC1(C)CCC(CN2CCN(c3ccc(C(=O)NS(=O)(=O)c4ccc(NCC5CCOCC5)c([N+](=O)[O-])c4)c(Oc4cnc5[nH]ccc5c4)c3)CC2)=C(c2ccc(Cl)cc2)C1 [Venetoclax] + C=CCn1c(=O)c2cnc(Nc3ccc(N4CCN(C)CC4)cc3)nc2n1-c1cccc(C(C)(C)O)n1 [AZD1775] (first compound max 1 µM, partner max 1 µM) | -0.0431 | -0.0507 | -0.0099 | -0.0443 | -0.012 | -0.0812 | 0.0619 | -0.047 | -0.0451 | 0.0127 | -0.0308 | 0.0657 | -0.0251 | -0.0656 | 0.0974 | 0.0917 | 0.0107 | -0.026 | 0.0381 | -0.0676 |
| COc1cc2c(cc1OCCCCCOc1cc3c(cc1OC)C(=O)N1C=C(C)C[C@H]1C=N3)N=C[C@@H]1CC(C)=CN1C2=O [SG3199] + O=C(c1cc(Cc2n[nH]c(=O)c3ccccc23)ccc1F)N1CCN(C(=O)C2CC2)CC1 [Olaparib] (first compound max 0.001 µM, 7x7, partner max 10 µM) | -0.0854 | -0.0299 | -0.0488 | -0.0802 | -0.0476 | -0.043 | -0.0456 | 0.0289 | -0.0334 | 0.0002 | -0.0971 | -0.0524 | -0.0136 | -0.0269 | -0.0328 | 0.0028 | -0.027 | -0.0477 | -0.0276 | -0.0362 |
| COc1cccc(OCCCN)c1-c1cc(Nc2cnc(C#N)cn2)n[nH]1 [Prexasertib] + C[C@@H]1COCCN1C2=NC(=NC(=C2)C3(CC3)[S@](=N)(=O)C)C4=C5C=CNC5=NC=C4 [AZD6738] (first compound max 1 µM, 7x7, partner max 10 µM) | -0.0226 | -0.0078 | -0.0883 | -0.0436 | 0.001 | -0.091 | -0.0416 | -0.0498 | -0.0548 | -0.0024 | -0.0106 | 0.0361 | -0.0356 | -0.0294 | 0.003 | -0.0467 | -0.0786 | -0.0412 | -0.0337 | 0.007 |
| Cc1c2c(nn1C)CSCc1cc(n(C)n1)CSc1cc(c3ccccc3c1)OCCCc1c(C(=O)O)n(C)c3c-2c(Cl)ccc13 [AZD5991] + Cc1cc2ncnn2cc1Nc1ncc2c(n1)n(C1CCOCC1)c(=O)n2C [AZD7648] (first compound max 1 µM, 7x7, partner max 10 µM) | -0.0739 | -0.0529 | -0.0697 | -0.0057 | -0.0341 | -0.0345 | -0.056 | -0.0639 | -0.0184 | -0.0251 | 0.008 | -0.0168 | -0.0501 | -0.0703 | -0.0572 | -0.0204 | -0.0079 | -0.032 | -0.0308 | -0.0069 |
